How the values were obtained:
Assay type in all cases: in vivo
[1] = tested on: Echinochloa crus-galli (ECHCG); assay: Post-emergence herbicidal action; settings: for Post-emergence action ECHCG: 320 g/ha, visual rating after about 3 weeks vs untreated controls, 100% = plants have died
Protocol: (§1) Seeds of monocotyledonous and dicotyledonous weeds and crop plants are placed in sandy loam in plastic or organic plant pots, covered with soil and cultivated in a greenhouse under controlled growth conditions. 2 to 3 weeks after sowing, the test plants are treated at the one-leaf stage. The compounds of the invention, formulated in the form of wettable powders (WP) or as emulsion concentrates (EC), are then sprayed onto the green parts of the plants as aqueous suspension or emulsion with addition of 0.5% additive at a water application rate of 600 l/ha (converted). After the test plants have been kept in the greenhouse under optimum growth conditions for about 3 weeks, the activity of the preparations is rated visually in comparison to untreated controls. For example, 100% activity=the plants have died, 0% activity=like control plants.
(§2) The abbreviations used here have the following meanings: • ABUTH Abutilon theophrasti • AMARE Amaranlhus retroflexus • CYPES Cyperus serotinus • ECHCGEchinocloa crus galli • LOLRI Lolium rigidum Gaudin • PHBPU Pharbitis purpurcum • SETVI Setaria viridis • VERPE Veronica persica • ALOMY Alopccurus myosuroides • AVEFA Avena fatua • DIGSA Digitaria sanguinalis • LOLMU Lolium multiflorum • MATIN Matricaria inodora • POLCO Polygonum convolvulus • STEME Stellaria media • VIOTR Viola tricolor
(§3) The compounds according to the invention were tested by the post-emergence and pre-emergence methods under the conditions described above for comparative purposes with the structurally closest compounds known from WO 2005/089551 A1 (D1).

Avena fatua (AVEFA) [2] = assay: Post-emergence herbicidal action; settings: for Post-emergence action AVEFA: 320 g/ha, visual rating after about 3 weeks vs untreated controls, 100% = plants have died
Protocol: as §1, §2, §3

Setaria viridis (SETVI) [3] = assay: Post-emergence herbicidal action; settings: for Post-emergence action SETVI: 320 g/ha, visual rating after about 3 weeks vs untreated controls, 100% = plants have died
Protocol: as §1, §2, §3

[4] = tested on: Abutilon theophrasti (ABUTH); assay: Post-emergence herbicidal action; settings: for Post-emergence action ABUTH: 320 g/ha, visual rating after about 3 weeks vs untreated controls, 100% = plants have died
Protocol: as §1, §2, §3

[5] = tested on: Matricaria inodora (MATIN); assay: Post-emergence herbicidal action; settings: for Post-emergence action MATIN: 320 g/ha, visual rating after about 3 weeks vs untreated controls, 100% = plants have died
Protocol: as §1, §2, §3

Stellaria media (STEME) [6] = assay: Post-emergence herbicidal action; settings: for Post-emergence action STEME: 320 g/ha, visual rating after about 3 weeks vs untreated controls, 100% = plants have died
Protocol: as §1, §2, §3

[7] = tested on: Lolium multiflorum (LOLMU); assay: Post-emergence herbicidal action; settings: for Post-emergence action LOLMU: 320 g/ha, visual rating after about 3 weeks vs untreated controls, 100% = plants have died
Protocol: as §1, §2, §3

[8] = tested on: Echinochloa crus-galli (ECHCG); assay: Pre-emergence herbicidal action; settings: for Herbicidal action against ECHCG: 80 g of a.i./ha, comparative test; for Pre-emergence action ECHCG: 320 g/ha, visual scoring after about 3 weeks vs untreated controls, 100% = plants have died
Description: as §2
(§4) Seeds of monocotyledonous and dicotyledonous weed plants and crop plants are placed in plastic or organic plant pots and covered with soil. The compounds of the invention, formulated in the form of wettable powders (WP) or as emulsion concentrates (EC), are then applied onto the surface of the covering soil as aqueous suspension or emulsion with addition of 0.5% additive at a water application rate of 600 l/ha (converted). After the treatment, the pots are placed in a greenhouse and kept under good growth conditions for the trial plants. After about 3 weeks, the effect of the preparations is scored visually in comparison with untreated controls as percentages. For example, 100% activity=the plants have died, 0% activity=like control plants.
as §3

[9] = tested on: Polygonum convolvulus (POLCO); assay: Pre-emergence herbicidal action; settings: for Herbicidal action against POLCO: 80 g of a.i./ha, comparative test
Description: as §2, §4, §3

Setaria viridis (SETVI) [10] = assay: Pre-emergence herbicidal action; settings: for Herbicidal action against SETVI: 80 g of a.i./ha, comparative test; for Pre-emergence action SETVI: 320 g/ha, visual scoring after about 3 weeks vs untreated controls, 100% = plants have died
Description: as §2, §4, §3

[11] = tested on: Matricaria inodora (MATIN); assay: Pre-emergence herbicidal action; settings: for Herbicidal action against MATIN: 80 g of a.i./ha, comparative test; for Pre-emergence action MATIN: 320 g/ha, visual scoring after about 3 weeks vs untreated controls, 100% = plants have died
Description: as §2, §4, §3

Stellaria media (STEME) [12] = assay: Pre-emergence herbicidal action; settings: for Pre-emergence action STEME: 320 g/ha, visual scoring after about 3 weeks vs untreated controls, 100% = plants have died
Description: as §2, §4, §3

[13] = tested on: Alopecurus myosuroides (ALOMY); assay: Pre-emergence herbicidal action; settings: for Herbicidal action against ALOMY: 80 g of a.i./ha, comparative test; for Pre-emergence action ALOMY: 320 g/ha, visual scoring after about 3 weeks vs untreated controls, 100% = plants have died
Description: as §2, §4, §3

Viola tricolor (VIOTR) [14] = assay: Pre-emergence herbicidal action; settings: for Herbicidal action against VIOTR: 80 g of a.i./ha, comparative test; for Pre-emergence action VIOTR: 320 g/ha, visual scoring after about 3 weeks vs untreated controls, 100% = plants have died
Description: as §2, §4, §3

[15] = tested on: Amaranthus retroflexus (AMARE); assay: Post-emergence herbicidal action; settings: 320 g/ha, visual rating after about 3 weeks vs untreated controls, 100% = plants have died
Protocol: as §1, §2

Viola tricolor (VIOTR) [16] = assay: Post-emergence herbicidal action; settings: 320 g/ha, visual rating after about 3 weeks vs untreated controls, 100% = plants have died
Protocol: as §1, §2

Veronica persica (VERPE) [17] = assay: Post-emergence herbicidal action; settings: 320 g/ha, visual rating after about 3 weeks vs untreated controls, 100% = plants have died
Protocol: as §1, §2

[18] = tested on: Pharbitis purpurea (PHBPU); assay: Pre-emergence herbicidal action; settings: 320 g/ha, visual scoring after about 3 weeks vs untreated controls, 100% = plants have died
Description: as §2, §4

[19] = tested on: Amaranthus retroflexus (AMARE); assay: Pre-emergence herbicidal action; settings: 320 g/ha, visual scoring after about 3 weeks vs untreated controls, 100% = plants have died
Description: as §2, §4

Veronica persica (VERPE) [20] = assay: Pre-emergence herbicidal action; settings: 320 g/ha, visual scoring after about 3 weeks vs untreated controls, 100% = plants have died
Description: as §2, §4

[21] = tested on: harmful plants such as Abutilon theophrasti, Alopecurus myosuroides, Amaranthus retroflexus, Avena fatua, Echinochloa crus-galli, Matricaria inodora, Pharbitis …; assay: Post-emergence herbicidal action, summary in text; settings: post-emergence treatment
Protocol: as §1
In this case, for example, in the post-emergence process, the compounds No. 1-001 and 111-001 have very good herbicidal activity (80% to 100% herbicidal action) against harmful plants such as Abutilon theophrasti, Alopecurus myosuroides, Amaranthus retroflexus, Avena fatua, Echinochloa crus-galli, Matricaria inodora, Pharbitis purpurea, Setaria viridis, Stellaria media, Veronica persica and Viola tricolor at an application rate of 0.32 kg of active substance or less per hectare. At the same time, some compounds according to the invention leave graminaceous crops such as barley, wheat, rye, millet/sorghum, maize, rice or sugarcane virtually undamaged when applied by the post-emergence method, even at high active compound dosages. Some substances are additionally also benign to dicotyledonous crops such as soya, cotton, oilseed rape or sugarbeet.

[22] = tested on: Polygonum convolvulus (POLCO); assay: Post-emergence herbicidal action
Protocol: as §1, §2, §3

[23] = tested on: Alopecurus myosuroides (ALOMY); assay: Post-emergence herbicidal action
Protocol: as §1, §2, §3

[24] = tested on: Pharbitis purpurea (PHBPU); assay: Post-emergence herbicidal action; settings: 320 g/ha, visual rating after about 3 weeks vs untreated controls, 100% = plants have died
Protocol: as §1, §2

Avena fatua (AVEFA) [25] = assay: Pre-emergence herbicidal action; settings: 320 g/ha, visual scoring after about 3 weeks vs untreated controls, 100% = plants have died
Description: as §2, §4

[26] = tested on: Abutilon theophrasti (ABUTH); assay: Pre-emergence herbicidal action; settings: 320 g/ha, visual scoring after about 3 weeks vs untreated controls, 100% = plants have died
Description: as §2, §4

[27] = tested on: Lolium multiflorum (LOLMU); assay: Pre-emergence herbicidal action; settings: 320 g/ha, visual scoring after about 3 weeks vs untreated controls, 100% = plants have died
Description: as §2, §4

[28] = tested on: harmful plants such as Alopecurus myosuroides, Amaranthus retroflexus, Avena fatua, Echinochloa crus-galli, Matricaria inodora, Pharbitis purpurea, Polygonum …; assay: Pre-emergence herbicidal action, summary in text; settings: pre-emergence treatment
Description: as §4
At the same time, some compounds according to the invention leave graminaceous crops such as barley, wheat, rye, millet/sorghum, maize, rice or sugarcane virtually undamaged when applied by the pre-emergence method, even at high active compound dosages. Some compounds are additionally also benign to dicotyledonous crops such as soya, cotton, oilseed rape or sugarbeet.

[29] = 80 g of a.i./ha, comparative test
[30] = 320 g/ha, visual rating after about 3 weeks vs untreated controls, 100% = plants have died

## FC(F)(F)c1cccc(Oc2nc(C3CC3)cc(-n3cc(C(F)(F)F)cn3)n2)c1 [II-001]
[1]
  Post-emergence action ECHCG: 80%
Avena fatua (AVEFA) [2]
  Post-emergence action AVEFA: 50%
Setaria viridis (SETVI) [3]
  Post-emergence action SETVI: 80%
[4]
  Post-emergence action ABUTH: 90%
[5]
  Post-emergence action MATIN: 80%
Stellaria media (STEME) [6]
  Post-emergence action STEME: 90%
[7]
  Post-emergence action LOLMU: 70%
[8]
  Herbicidal action against ECHCG: 80%
  Pre-emergence action ECHCG: 80%
[9]
  Herbicidal action against POLCO: 20%
Setaria viridis (SETVI) [10]
  Herbicidal action against SETVI: 90%
  Pre-emergence action SETVI: 100%
[11]
  Herbicidal action against MATIN: 80%
  Pre-emergence action MATIN: 100%
Stellaria media (STEME) [12]
  Pre-emergence action STEME: 90%
[13]
  Herbicidal action against ALOMY: 60%
  Pre-emergence action ALOMY: 100%
Viola tricolor (VIOTR) [14]
  Herbicidal action against VIOTR: 90%
  Pre-emergence action VIOTR: 90%
[15]
  Post-emergence action AMARE: 90%
Viola tricolor (VIOTR) [16]
  Post-emergence action VIOTR: 100%
Veronica persica (VERPE) [17]
  Post-emergence action VERPE: 100%
[18]
  Pre-emergence action PHBPU: 80%
[19]
  Pre-emergence action AMARE: 90%
Veronica persica (VERPE) [20]
  Pre-emergence action VERPE: 90%
[21]
  herbicidal action against harmful plants (in words): good herbicidal action

## Cn1nc(C(F)(F)F)cc1Oc1nc(C2CC2)cc(-n2cc(C(F)(F)F)cn2)n1 [III-001]
[1]; [29]
  Herbicidal action against ECHCG: 80%
[1]
  Post-emergence action ECHCG: 90%
[22]; [29]
  Herbicidal action against POLCO: 90%
[22]; [30]
  Post-emergence action POLCO: 90%
Avena fatua (AVEFA) [2]; [29]
  Herbicidal action against AVEFA: 80%
Avena fatua (AVEFA) [2]
  Post-emergence action AVEFA: 90%
Setaria viridis (SETVI) [3]; [29]
  Herbicidal action against SETVI: 90%
Setaria viridis (SETVI) [3]
  Post-emergence action SETVI: 100%
[4]; [29]
  Herbicidal action against ABUTH: 90%
[4]
  Post-emergence action ABUTH: 90%
[5]; [29]
  Herbicidal action against MATIN: 80%
[5]
  Post-emergence action MATIN: 90%
Stellaria media (STEME) [6]; [29]
  Herbicidal action against STEME: 90%
Stellaria media (STEME) [6]
  Post-emergence action STEME: 100%
[23]; [29]
  Herbicidal action against ALOMY: 70%
[23]; [30]
  Post-emergence action ALOMY: 90%
[7]; [29]
  Herbicidal action against LOLMU: 70%
[7]
  Post-emergence action LOLMU: 90%
[8]
  Herbicidal action against ECHCG: 100%
  Pre-emergence action ECHCG: 100%
[9]
  Herbicidal action against POLCO: 90%
[9]; 320 g/ha, visual scoring after about 3 weeks vs untreated controls, 100% = plants have died
  Pre-emergence action POLCO: 90%
Setaria viridis (SETVI) [10]
  Herbicidal action against SETVI: 100%
  Pre-emergence action SETVI: 100%
[11]
  Herbicidal action against MATIN: 100%
  Pre-emergence action MATIN: 100%
Stellaria media (STEME) [12]; [29]
  Herbicidal action against STEME: 90%
Stellaria media (STEME) [12]
  Pre-emergence action STEME: 100%
[13]
  Herbicidal action against ALOMY: 100%
  Pre-emergence action ALOMY: 100%
Viola tricolor (VIOTR) [14]
  Herbicidal action against VIOTR: 100%
  Pre-emergence action VIOTR: 100%
[24]
  Post-emergence action PHBPU: 100%
[15]
  Post-emergence action AMARE: 100%
Viola tricolor (VIOTR) [16]
  Post-emergence action VIOTR: 100%
Veronica persica (VERPE) [17]
  Post-emergence action VERPE: 100%
[18]
  Pre-emergence action PHBPU: 100%
Avena fatua (AVEFA) [25]
  Pre-emergence action AVEFA: 90%
[26]
  Pre-emergence action ABUTH: 90%
[19]
  Pre-emergence action AMARE: 90%
[27]
  Pre-emergence action LOLMU: 90%
Veronica persica (VERPE) [20]
  Pre-emergence action VERPE: 100%
[28]
  herbicidal action against harmful plants (in words): good herbicidal action
[21]
  herbicidal action against harmful plants (in words): good herbicidal action

Source: patent US12509445B2, “Herbicidally active 4-cyclopropyl-6-[4-(trifluormethyl)pyrazol-1-yl)]pyrimidines” (Bayer Aktiengesellschaft, priority 2019, dated 2025)
